Test results taken from US11339171B2, “MDM2 inhibitors” (Gan & Lee Pharmaceuticals, priority 2017, dated 2022).
“And” between values parts separate entries of the source, which are not always exact repeats. Identical values can stand only once. Like-named read-outs stand apart in the source and are kept apart here.

Legend:
[1] = test system: human osteosarcoma cell line SJSA-1; experiment: Inhibition of proliferation of human osteosarcoma cell line SJSA-1 (DAPI staining, In Cell Analyzer); details: Homo sapiens, SJSA-1, 72 h, read-out: IC50 (nM), inhibitory activity on proliferation of human osteosarcoma cell line SJSA-1, SJSA-1, incubated 72 h
MDM2 = target: T1, MDM2 (Homo sapiens, UniProt Q00987); experiment: Inhibition test of MDM2-P53 (GST-MDM2, Biotin-P53, Anti-GST-Tb, SA-XL665); type: binding
T1 construct: made in house
T1 sequence (Q00987 whole entry): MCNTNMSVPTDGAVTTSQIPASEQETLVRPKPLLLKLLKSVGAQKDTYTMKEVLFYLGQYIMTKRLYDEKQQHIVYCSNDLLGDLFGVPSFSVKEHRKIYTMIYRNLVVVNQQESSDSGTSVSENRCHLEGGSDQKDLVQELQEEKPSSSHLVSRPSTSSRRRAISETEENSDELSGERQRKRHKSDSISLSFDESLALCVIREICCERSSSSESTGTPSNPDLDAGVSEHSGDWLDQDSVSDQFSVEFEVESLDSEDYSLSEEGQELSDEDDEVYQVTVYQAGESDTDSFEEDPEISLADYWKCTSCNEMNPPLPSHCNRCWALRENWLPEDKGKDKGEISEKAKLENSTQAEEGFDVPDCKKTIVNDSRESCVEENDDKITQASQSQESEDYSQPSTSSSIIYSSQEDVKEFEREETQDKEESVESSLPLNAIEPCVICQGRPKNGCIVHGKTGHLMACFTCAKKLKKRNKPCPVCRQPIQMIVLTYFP
In short: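 Compounds, serially diluted 5-fold (twelve concentrations), were shaken for 90 min at 25° C with a mix of GST-MDM2 (4 nM final), Biotin-P53, anti-GST-Tb and SA-XL665. Buffer: 1×PBS, 0.1% BSA, 5 mM DTT, 1 mM AEBSF; signal read on a microplate reader.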

[2] = Pharmacokinetics in ICR mice after intravenous and intragastric administration; type: in vivo; details: for F*: PO 5 mg/kg vs IV 2 mg/kg, mean; for Vd: read-out: Vz; for MRT last: read-out: MRT(0-t); for MRT inf: read-out: MRT(0-∞)
In short: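 Compounds were dissolved at 0.5 mg/ml in DMSO/PEG400/HP-β-CD saline vehicle and given to overnight-fasted male ICR mice, 2 mg/kg by vein or 5 mg/kg by gavage (n=3 each). Plasma was then protein-precipitated, assayed by LC-MS/MS, and PK parameters including oral bioavailability were derived.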

[3] = ICR mice, IV 2 mg/kg, individual animals 301-303, 2 mg/kg
[4] = ICR mice, PO 5 mg/kg, individual animals 401-403, 5 mg/kg
[5] = male, ICR, mouse, plasma, iv, 2 mg/kg, ICR mice, IV 2 mg/kg, individual animals 301-303, read-out: Cmax
[6] = male, ICR, mouse, plasma, iv, 2 mg/kg, ICR mice, IV 2 mg/kg, individual animals 301-303, read-out: Tmax
[7] = male, ICR, mouse, plasma, iv, 2 mg/kg, ICR mice, IV 2 mg/kg, individual animals 301-303
[8] = male, ICR, mouse, plasma, iv, 2 mg/kg, ICR mice, IV 2 mg/kg, mean of 3 animals
[9] = male, ICR, mouse, plasma, iv, 2 mg/kg, ICR mice, IV 2 mg/kg, mean of 3 animals, read-out: AUC(0-t)
[10] = male, ICR, mouse, plasma, iv, 2 mg/kg, ICR mice, IV 2 mg/kg, mean of 3 animals, read-out: Cmax
[11] = male, ICR, mouse, plasma, iv, 2 mg/kg, ICR mice, IV 2 mg/kg, mean of 3 animals, read-out: Tmax
[12] = male, ICR, mouse, plasma, iv, 2 mg/kg, ICR mice, IV 2 mg/kg, mean of 3 animals, read-out: t1/2 (converted)
[13] = male, ICR, mouse, plasma, po, 5 mg/kg, ICR mice, PO 5 mg/kg, individual animals 401-403
[14] = male, ICR, mouse, plasma, po, 5 mg/kg, ICR mice, PO 5 mg/kg, individual animals 401-403, read-out: AUC(0-t)
[15] = male, ICR, mouse, plasma, po, 5 mg/kg, ICR mice, PO 5 mg/kg, individual animals 401-403, read-out: Cmax
[16] = male, ICR, mouse, plasma, po, 5 mg/kg, ICR mice, PO 5 mg/kg, individual animals 401-403, read-out: Tmax
[17] = male, ICR, mouse, plasma, po, 5 mg/kg, ICR mice, PO 5 mg/kg, individual animals 401-403, read-out: t1/2 (converted)
[18] = male, ICR, mouse, plasma, po, 5 mg/kg, ICR mice, PO 5 mg/kg, mean of 3 animals
[19] = male, ICR, mouse, plasma, po, 5 mg/kg, ICR mice, PO 5 mg/kg, mean of 3 animals, read-out: AUC(0-t)
[20] = male, ICR, mouse, plasma, po, 5 mg/kg, ICR mice, PO 5 mg/kg, mean of 3 animals, read-out: Cmax
[21] = male, ICR, mouse, plasma, po, 5 mg/kg, ICR mice, PO 5 mg/kg, mean of 3 animals, read-out: Tmax
[22] = male, ICR, mouse, plasma, po, 5 mg/kg, ICR mice, PO 5 mg/kg, mean of 3 animals, read-out: t1/2 (converted)
[23] = male, ICR, mouse, plasma, po, 5 mg/kg, oral intragastric administration 5 mg/kg, read-out: AUC0-t

COc1nc(OCCF)ncc1-c1nc2c(n1C(C)C)[C@@]1(C(=O)Nc3cc(Cl)ccc31)N(c1cc(Cl)ccc1C)C2=O [Example S-140, (S)-6-chloro-5′-(5-chloro-2-methylphenyl)-2′-(2-(2-fluoroethoxy)-4-methoxypyrimidin-5-yl)-3′-isopropyl-3′H-spiro[dihydroindole-3,4′-pyrrolo[3,4-d]imidazole]-2,6′(5′H)-dione]
IC50 [1]: 81.5 nM | IC50 (MDM2): 0.00106 µM | AUC(0-t) [2, 3]: 9144.58 ng·h/mL and 19456.40 ng·h/mL and 11628.12 ng·h/mL | CL [2, 3]: 3.37 mL/min/kg and 1.67 mL/min/kg and 2.26 mL/min/kg | Cmax [2, 3]: 6627.89 ng/mL and 5215.16 ng/mL | MRT(0-t) [2, 3]: 1.58 h and 3.73 h and 1.94 h | Vz [2, 3]: 0.61 L/kg and 0.52 L/kg | t1/2 [2, 3]: 1.70 h and 4.19 h and 2.67 h | F* ([2]; ICR mice): 72.11% | AUC(0-t) [2, 4]: 26053.96 ng·h/mL and 23914.34 ng·h/mL | AUC(0-∞) [2, 4]: 26994.24 ng·h/mL and 26699.24 ng·h/mL | Cmax [2, 4]: 5947.01 ng/mL and 4972.85 ng/mL | MRT(0-t) [2, 4]: 2.67 h | MRT(0-∞) [2, 4]: 2.93 h and 3.85 h | Tmax [2, 4]: 1.00 h | t1/2 [2, 4]: 1.54 h and 2.38 h | Cmax [2, 5]: 4540 ng/mL | Tmax [2, 6]: 0.08 h | Vd [2, 7]: 0.5 L/kg | clearance [2, 8]: 2.43 mL/min/kg | AUC(0-t) [2, 9]: 13400 ng·h/mL | Cmax [2, 10]: 5460 ng/mL | MRT last [2, 8]: 2.42 h | Tmax [2, 11]: 0.083 h | Vd [2, 8]: 0.54 L/kg | half-life [2, 12]: 2.86 h | AUC(0-t) ([2]; male, ICR, mouse, plasma, iv, 2 mg/kg, ICR mice, IV 2 mg/kg, mean of 3 animals, second AUC column (c5) of Table 26, read-out: AUC(0-t)): 14900 ng·h/mL | MRT last ([2]; male, ICR, mouse, plasma, iv, 2 mg/kg, ICR mice, IV 2 mg/kg, mean of 3 animals, second MRT column (c7) of Table 26): 3.36 h | AUC(0-inf) [2, 13]: 24700 ng·h/mL | AUC(0-t) [2, 14]: 22600 ng·h/mL | Cmax [2, 15]: 4250 ng/mL | MRT last [2, 13]: 2.97 h | MRT inf [2, 13]: 3.69 h | Tmax [2, 16]: 2 h | half-life [2, 17]: 2.19 h | AUC(0-inf) [2, 18]: 26100 ng·h/mL | AUC(0-t) [2, 19]: 24200 ng·h/mL | Cmax [2, 20]: 5060 ng/mL | MRT last [2, 18]: 2.87 h | MRT inf [2, 18]: 3.49 h | Tmax [2, 21]: 1.67 h | half-life [2, 22]: 2.04 h | AUC(0-t) [2, 23]: 24200 ng·h/mL | half-life ([2]; male, ICR, mouse, plasma, po, 5 mg/kg, oral intragastric administration 5 mg/kg, read-out: half-life (converted)): 2.04 h

COc1nc(N(C)C)ncc1-c1nc2c(n1C(C)C)[C@@]1(C(=O)Nc3cc(Cl)ccc31)N(c1cc(Cl)cnc1C)C2=O [Example S-135, (S)-6-chloro-5′-(5-chloro-2-methylpyridin-3-yl)-2′-(2-(dimethylamino)-4-methoxypyrimidin-5-yl)-3′-isopropyl-3′H-spiro[dihydroindole-3,4′-pyrrolo[3,4-d]imidazole]-2,6′(5′H)-dione]
IC50 [1]: 96.2 nM | IC50 (MDM2): 0.00136 µM | AUC(0-t) [2, 3]: 7341.09 ng·h/mL and 6495.01 ng·h/mL | AUC(0-∞) [2, 3]: 7977.92 ng·h/mL and 7378.29 ng·h/mL | CL [2, 3]: 4.18 mL/min/kg and 4.52 mL/min/kg | Cmax [2, 3]: 3518.53 ng/mL and 3314.60 ng/mL | MRT(0-t) [2, 3]: 1.66 h and 1.70 h | MRT(0-∞) [2, 3]: 2.21 h and 2.57 h | Vz [2, 3]: 0.64 L/kg and 0.80 L/kg | t1/2 [2, 3]: 1.78 h and 2.03 h | F* ([2]; ICR mice): 48.91% | AUC(0-t) [2, 4]: 7012.03 ng·h/mL and 9412.84 ng·h/mL | AUC(0-∞) [2, 4]: 7126.47 ng·h/mL and 9616.11 ng·h/mL | Cmax [2, 4]: 2014.04 ng/mL and 2249.28 ng/mL | MRT(0-t) [2, 4]: 2.19 h and 2.43 h | MRT(0-∞) [2, 4]: 2.32 h and 2.59 h | t1/2 [2, 4]: 1.27 h and 1.34 h | AUC(0-inf) [2, 7]: 7840 ng·h/mL | clearance [2, 7]: 4.25 mL/min/kg | AUC(0-t) ([2]; male, ICR, mouse, plasma, iv, 2 mg/kg, ICR mice, IV 2 mg/kg, individual animals 301-303, read-out: AUC(0-t)): 7270 ng·h/mL | Cmax [2, 5]: 3900 ng/mL | MRT last [2, 7]: 1.6 h | MRT inf [2, 7]: 2.09 h | Tmax [2, 6]: 0.08 h | Vd [2, 7]: 0.61 L/kg | half-life ([2]; male, ICR, mouse, plasma, iv, 2 mg/kg, ICR mice, IV 2 mg/kg, individual animals 301-303, read-out: t1/2 (converted)): 1.65 h | AUC(0-inf) [2, 8]: 7730 ng·h/mL | clearance [2, 8]: 4.32 mL/min/kg | AUC(0-t) [2, 9]: 7040 ng·h/mL | Cmax [2, 10]: 3580 ng/mL | MRT last [2, 8]: 1.65 h | MRT inf [2, 8]: 2.29 h | Tmax [2, 11]: 0.083 h | Vd [2, 8]: 0.68 L/kg | half-life [2, 12]: 1.82 h | AUC(0-inf) [2, 13]: 9970 ng·h/mL | AUC(0-t) [2, 14]: 9390 ng·h/mL | Cmax [2, 15]: 2160 ng/mL | MRT last [2, 13]: 2.64 h | MRT inf [2, 13]: 3.12 h | Tmax [2, 16]: 1 h | half-life [2, 17]: 1.87 h | AUC(0-inf) [2, 18]: 8910 ng·h/mL | AUC(0-t) [2, 19]: 8600 ng·h/mL | Cmax [2, 20]: 2140 ng/mL | MRT last [2, 18]: 2.42 h | MRT inf [2, 18]: 2.67 h | Tmax [2, 21]: 1 h | half-life [2, 22]: 1.49 h | AUC(0-t) [2, 23]: 8600 ng·h/mL
